# Experimental data: patent publication US6350913B1, “3-alkoxybenzylamine derivatives and their use as medicines for treating schizophrenia” (Pierre Fabre Medicament, priority 1998, dated 2002)
# Counter-ions that a name gives are not always drawn.
# What was measured:
# [1] = tested on: behavioral patterns induced by methylphenidate; test: Inhibition of behavioral patterns induced by methylphenidate (in vivo antidopaminergic activity); conditions: Rattus norvegicus, ip, read-out: Normalization ED50
# D2 receptors = D2 receptors (Homo sapiens, UniProt P14416); test: Affinity for D2-type receptors by displacement of (3H) YM-09151-2; format: binding; conditions: mean of at least 3 experiments, read-out: D2 pKi (converted)
# Chain of D2 receptors (P14416 whole entry): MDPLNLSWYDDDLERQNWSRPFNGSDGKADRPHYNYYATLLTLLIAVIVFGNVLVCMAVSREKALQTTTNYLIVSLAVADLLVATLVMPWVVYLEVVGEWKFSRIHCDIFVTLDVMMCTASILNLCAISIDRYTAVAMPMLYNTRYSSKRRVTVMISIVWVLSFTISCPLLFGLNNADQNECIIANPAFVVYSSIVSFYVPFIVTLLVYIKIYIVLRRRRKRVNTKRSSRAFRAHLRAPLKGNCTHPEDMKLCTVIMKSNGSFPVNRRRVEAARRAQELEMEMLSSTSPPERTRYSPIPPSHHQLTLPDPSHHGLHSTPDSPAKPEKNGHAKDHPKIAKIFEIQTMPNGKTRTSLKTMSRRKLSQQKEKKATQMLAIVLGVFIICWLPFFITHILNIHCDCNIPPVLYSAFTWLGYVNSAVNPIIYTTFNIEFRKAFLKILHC
# Method: 1- Measurement of the affinity of the compounds of the invention for the D2 receptors. The affinity of the compounds of the invention for the D2-type receptors was determined by measuring the displacement of (^3H) YM-09151-2 (NET-1004 70-87 Ci/mmol), according to the method described in Naunyn-Schimiedeberg's Arch. Pharmacol. Methods, 1985, 329, 333. The pKi values (-log Ki) are given in the form of a mean±SEM of at least 3 experiments.
# [2] = Cataleptogenic power (propensity to induce extrapyramidal side effects); conditions: rat, in vivo, ip; rats, i.p. administration; read-out: Catalepsy ED50
Compound,ED50 [1],Ki (D2 receptors),ED50 [2],melting point
CC(C)Oc1ccccc1OCCNCc1cc(OC2CCCC2)ccc1F [Compound 1.12],1.25 mg/kg,0.741 nM,> 40 mg/kg,–
CC(C)Oc1ccccc1OCCNCc1cccc(OC2CC3C=CC2C3)c1 (stereo not drawn) [Compound 1.4],5 mg/kg,2.75 nM,> 40 mg/kg,–
CC(C)Oc1ccccc1OCCNCc1cc(OC2CCCC2)ccc1F (as salt: oxalate) [Compound 1.12],–,–,–,159 °C
"Cc1nc2n(c(=O)c1CCN1CCC(c3noc4cc(F)ccc34)CC1)CCCC2 [Risperidone, reference compound]",2.9 mg/kg,–,–,–
CC(C)Oc1ccccc1OCCNCc1cccc(OC2CC3C=CC2C3)c1 (stereo not drawn) (as salt: oxalate) [Compound 1.4],–,–,–,177 °C
